Results from patent publication US7220784B2, “Substituted stilbenes and their reactions” (priority 2000, dated 2007).
pIC50: −log10 of the molar value. Several values for one entry are separate records, joined by “and”; a condition that tells them apart may be missing. Equal entries are not always repeated. Where two headings read alike, the source gives them in different places.

How the values were obtained:
[1] = test system: T1, tubulin; assay: Inhibition of tubulin assembly; type: biochemical; settings: concentration required to reduce assembly of tubulin by 50%
T1 construct: other: concentration required to reduce assembly of tubulin by 50%
Procedure: (§1) The following assays (1–5) were carried out as described in our paper (Woods, et al, British Journal of Cancer, 71, 705–711 (1995)). In addition to the cell lines described in this paper, other established human cell lines (K562, HUVEC, H460, BE, H529, and HT29) were used in the cytotoxicity/growth inhibition assay. • (1) Inhibition of tubulin assembly. The figure quoted is the concentration required to reduce assembly of tubulin by 50%. Tubulin assembly is monitored by light scatter/absorption at 350 nm.

[2] = test system: HUVEC; assay: Growth inhibition studies using HUVEC; type: cell-based, human
Procedure: as §1
(§2) (2) Competition for the colchicine binding site on tubulin. The figure quoted represents the % of ^3H-colchicine bound following co-incubation of test compound and ^3H-cochicine with isolated tubulin. Where ester pro-drugs were used the experiments were carried out in the presence and absence of porcine liver esterase. • (3) Cytotoxicity/growth inhibition assay. This was carried out by the MTT assay. • (4) Permeability (shape-change) assay in endothelial cells. This was carried out using a method based on that of Watts et al. (Anticancer Res., 17, 71–75, (1997)). This involved the diffusion of a fluorescently labelled dextran through a barrier of endothelial cells (HUVEC) grown to confluence on a porous membrane. The effect of agents to alter the shape of these cells results in an increase in the permeability of the cells to the dye. The figure represents the increase in permeability over control cultures when drug is added (30 minutes, 1 mM.). • (5) Experiments to study the anti-vascular effects of these agents were carried out as described previously by our group. (Zhao et al, European Journal of Nuclear Medicine, 26, 231–238 (1999)). The anti-vascular effects of the agents were monitored by either positron emission tomography (PET) or by histologogical examination following treatment of mice bearing T50:80 murine breast tumours, or H460 human lung tumours. • (6) Anti-tumour efficacy of agents was determined in xenografts of H460 human lung cancer. Animals (n=5) were trated either with 5 daily injections and tumour size measured with time following treatment. • (7) The pharmacokinetic profile of agents was determined in mice following injection with drug. Blood was taken at various times following treatment and analysed by HPLC with UV detection. The HPLC conditions were isocratic using a 5 micron C18 BDS column (150×4.6) ad eluting with 75% MeOH in water with a detection wavelength of 290 nm. […] (AND(P)H:quinone oxidoreductace, EC 1.6.99.2). DT-diaphorase is an enzyme over-expressed in a number of human tumours. […] This two-electron reducing enzyme can be used to selectively activate prodrugs within cancers which over-express the enzyme.

[3] = test system: colchicine binding site on tubulin; assay: Competition for the colchicine binding site on tubulin
[4] = test system: P388 murine leukaemia cell line; assay: Cytotoxicity/growth inhibition assay (MTT), P388; type: cell-based
Procedure, shortened: (§3)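 Growth inhibition of P388 murine and K562 human leukaemia cells measured by MTT assay.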

[5] = test system: A2780; assay: Cytotoxicity/growth inhibition assay (MTT), A2780; type: cell-based; settings: for pIC50: read-out: A2780 IC50; for IC50: read-out: IC50 (nM) A2780
Procedure, shortened: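 MTT cytotoxicity/growth-inhibition assay in human cell lines including A2780, A2780/ADR, H460 and HUVEC.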

[6] = test system: H460 human lung cell line; assay: Cytotoxicity/growth inhibition assay (MTT), H460; type: cell-based
Procedure: as §1, §2

[7] = test system: diaphorase null H596 cell line; assay: Cytotoxicity/growth inhibition assay (MTT), H596; type: cell-based; settings: for H596/H460: ratio of IC50, diaphorase null H596 over H460
Procedure: as §1
(2) Competition for the colchicine binding site on tubulin. The figure quoted represents the % of ^3H-colchicine bound following co-incubation of test compound and ^3H-cochicine with isolated tubulin. Where ester pro-drugs were used the experiments were carried out in the presence and absence of porcine liver esterase. • (3) Cytotoxicity/growth inhibition assay. This was carried out by the MTT assay. • (4) Permeability (shape-change) assay in endothelial cells. This was carried out using a method based on that of Watts et al. (Anticancer Res., 17, 71–75, (1997)). This involved the diffusion of a fluorescently labelled dextran through a barrier of endothelial cells (HUVEC) grown to confluence on a porous membrane. The effect of agents to alter the shape of these cells results in an increase in the permeability of the cells to the dye. The figure represents the increase in permeability over control cultures when drug is added (30 minutes, 1 mM.). • (5) Experiments to study the anti-vascular effects of these agents were carried out as described previously by our group. (Zhao et al, European Journal of Nuclear Medicine, 26, 231–238 (1999)). The anti-vascular effects of the agents were monitored by either positron emission tomography (PET) or by histologogical examination following treatment of mice bearing T50:80 murine breast tumours, or H460 human lung tumours. • (6) Anti-tumour efficacy of agents was determined in xenografts of H460 human lung cancer. Animals (n=5) were trated either with 5 daily injections and tumour size measured with time following treatment. • (7) The pharmacokinetic profile of agents was determined in mice following injection with drug. Blood was taken at various times following treatment and analysed by HPLC with UV detection. The HPLC conditions were isocratic using a 5 micron C18 BDS column (150×4.6) ad eluting with 75% MeOH in water with a detection wavelength of 290 nm. The retention time of 6.6 mins for 97–64H. • (8) Activation of quinone prodrugs by DT-diaphorase. (AND(P)H:quinone oxidoreductace, EC 1.6.99.2). DT-diaphorase is an enzyme over-expressed in a number of human tumours. We have recently shown this enzyme to be highly expressed in the endothelial cells of blood vessels. This two-electron reducing enzyme can be used to selectively activate prodrugs within cancers which over-express the enzyme. We have therefore synthesised quinone pro-drugs (97–96, 98–40, 98–23, 98–33, 98–24) which, upon reduction by the enzyme, produces an agent (a hydroquinone stilbene) which is cytotoxic.
A series of prodrugs capable of being activated by DT-diaphorase, an enzyme over-expressed in a wide range of human cancers and in endothelial cells of the vasculature were synthesised. The rationale for this is that these agents will be activated in situ by the tumours over-expressing the enzyme, thus giving rise to a high local concentration of active drug. This confers selectivity to this agent. These quinone prodrugs (97–96 and 98–23) were tested for their ability to act as substrates for DT-diaphorase. […] This agent may therefore have a role in the treatment of tumours that over-express DT-diaphorase. Similarly, these agents maybe selectively activated in the endothelial cells of the vasculature, thereby conferring a selective anti-vascular effect.

[8] = biological target: DT-diaphorase (Homo sapiens, UniProt P15559); assay: Activation of quinone prodrugs by DT-diaphorase; type: biochemical; settings: comparable to RH1
Chain of DT-diaphorase (P15559 whole entry, species assumed, the tested form may be a part): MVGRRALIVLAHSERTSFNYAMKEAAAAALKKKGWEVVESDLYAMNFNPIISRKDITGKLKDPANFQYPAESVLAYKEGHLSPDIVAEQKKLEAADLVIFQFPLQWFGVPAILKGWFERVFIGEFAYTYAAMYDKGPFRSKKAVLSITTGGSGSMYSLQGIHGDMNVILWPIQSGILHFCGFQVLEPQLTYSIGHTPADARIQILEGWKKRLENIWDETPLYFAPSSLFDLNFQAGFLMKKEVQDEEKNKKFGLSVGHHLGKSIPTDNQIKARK
Procedure: (§4) (2) Competition for the colchicine binding site on tubulin. The figure quoted represents the % of ^3H-colchicine bound following co-incubation of test compound and ^3H-cochicine with isolated tubulin. Where ester pro-drugs were used the experiments were carried out in the presence and absence of porcine liver esterase. • (3) Cytotoxicity/growth inhibition assay. This was carried out by the MTT assay. • (4) Permeability (shape-change) assay in endothelial cells. This was carried out using a method based on that of Watts et al. (Anticancer Res., 17, 71–75, (1997)). This involved the diffusion of a fluorescently labelled dextran through a barrier of endothelial cells (HUVEC) grown to confluence on a porous membrane. […] The anti-vascular effects of the agents were monitored by either positron emission tomography (PET) or by histologogical examination following treatment of mice bearing T50:80 murine breast tumours, or H460 human lung tumours. • (6) Anti-tumour efficacy of agents was determined in xenografts of H460 human lung cancer. Animals (n=5) were trated either with 5 daily injections and tumour size measured with time following treatment. • (7) The pharmacokinetic profile of agents was determined in mice following injection with drug. Blood was taken at various times following treatment and analysed by HPLC with UV detection. […]

[9] = test system: K562 human myelogeneous leukaemia cell line; assay: Cytotoxicity/growth inhibition assay (MTT), K562; type: cell-based; settings: Homo sapiens, K562; MTT; read-out: K562 IC50
Procedure, shortened: as §3

[10] = test system: H460 human lung xenograft; assay: Tumour damage in H460 human lung xenograft grown subcutaneously; type: in vivo; settings: 0.75×MTD, i.p., twenty four hours following injection
Procedure: The effect of compounds 97–64H and 97–96 (quinone compound) was tested on H460 human lung xenograft grown subcutaneously by injecting equitoxic doses of the compounds (0.75×MTD).

[11] = test system: H460 human lung cancer xenografts; assay: Anti-tumour efficacy in xenografts of H460 human lung cancer; type: in vivo, mice; settings: H460 human lung cancer xenograft
Procedure: as §4

Row | Compound | IC50 [1] [µM] | pIC50 ([2]; Homo sapiens, HUVEC) | Colchicine % Inhibition [3] | pIC50 ([4]; Mus musculus, P388, MTT) | pIC50 ([5]; Homo sapiens, A2780) | pIC50 ([4]; MTT) | pIC50 [5] | H596/H460 [7] | further results
1 | COc1ccc(C=Cc2cc(OC)c(OC)c(OC)c2)cc1OCc1ccccc1[N+](=O)[O-] [Compound 98-29] | > 100 | 6.37 | 53% | 6.35 | 6.42 |  |  |  | 
2 | COc1ccc(C=Cc2cc(OC)c(OC)c(OC)c2)cc1F [Compound 97-64L] | > 100 |  | 43% |  |  | 6.77 | 6.95 |  | 
3 | COc1cc(C=Cc2ccc(C)c(O)c2)cc(OC)c1OC [Compound 98-21] | < 1.25 | 8.02 | 1.4% | 9.03 | 9.18 |  |  |  | 
4 | COc1cc(/C=C\C2=CC(=O)C(C)=CC2=O)cc(OC)c1OC [Compound 98-23] |  |  |  |  |  | 5.66 | 5.67 | 0.52 | pIC50 [6]: 5.36; pIC50 [7]: 5.64; ability to act as substrate for DT-diaphorase [8]: good substrates for the enzyme; pIC50 [4]: 5.66; IC50 [5]: 2150 nM
5 | COc1cc(/C=C/C2=CC(=O)C(C)=CC2=O)cc(OC)c1OC [Compound 98-33] |  |  |  |  |  |  |  | 0.36 | pIC50 [6]: 5.39; pIC50 [7]: 5.83; pIC50 [4]: > 6.11; IC50 [5]: 950 nM
6 | COc1ccc(/C=C\c2cc(C)c(C)c(C)c2)cc1O [Compound 28, (Z)-1-(3′,4′,5′-trimethylphenyl)-2-(3″-hydroxy-4″-methoxyphenyl)ethene] | 1.5 |  |  |  |  |  |  |  | pIC50 [9]: 7.68; melting point: 60 to 61 °C
7 | COc1ccc(C=Cc2cc(OC)c(OC)c(OC)c2)cc1OC(=O)c1ccncc1 [Compound 97-07] | 10 |  | 6.6% and 12.3% |  |  | 8.64 | 8.83 |  | pIC50 ([6]; Homo sapiens, NCI-H460): 5.56
8 | COC1=CC(=O)C(/C=C\c2cc(OC)c(OC)c(OC)c2)=CC1=O [Compound 97-96, 2-Methoxy-5-[(Z)-2-(3′,4′,5′-trimethoxyphenyl)-vinyl]-[1,4]benzoquinone] | < 1.25 | 6.64 |  | 6.24 | 6.72 |  |  | 16 | pIC50 ([6]; Homo sapiens, NCI-H460): 7.42; pIC50 [2]: 6.66; pIC50 ([7]; Homo sapiens, NCI-H596): 6.21; tumour damage [10]: extensive damage to the tumours; anti-tumour activity in vivo [11]: active; ability to act as substrate for DT-diaphorase [8]: good substrates for the enzyme; pIC50 ([4]; Mus musculus, P388): 6.24; IC50 ([5]; Homo sapiens, A2780): 190 nM
9 | COc1ccc(/C=C(/C)c2cc(OC)c(OC)c(OC)c2)cc1O [Compound 19, Z-(3′-Hydroxy-4′-methoxyphenyl)-2-(3″,4″,5″-trimethoxyphenyl)propene] | 1.8 |  |  |  |  |  |  |  | pIC50 [9]: 7.40; melting point: 156 to 158 °C
